Legend:
Assay in all cases: relative viability (nuclei count vs DMSO), 5 days (fraction); higher = more cells survive
GSK-J4 + Trametinib = compound: CCOC(=O)CCNc1cc(N2CCc3ccccc3CC2)nc(-c2ccccn2)n1 [GSK-J4] + CC(=O)Nc1cccc(-n2c(=O)n(C3CC3)c(=O)c3c(Nc4ccc(I)cc4F)n(C)c(=O)c(C)c32)c1 [Trametinib] (partner 0.02 µM)
In short: (§1)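 A single step with final 0.05% Triton X-100, 1% formaldehyde and 1 ug/ml Hoechst fixed the cells and stained nuclei 5 days after treatment. Lung cancer cell lines in 1536-well plates had been treated by pin tool the day after seeding with one drug alone or a fixed anchor-drug dose plus five library-drug doses (not always all listed) in √10 steps, and nuclei were counted on 4× images. Relative viability is the ratio of nuclei in treated wells to nuclei in vehicle wells, taken as the median of duplicate plates.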

GSK-J4 + Luminespib = compound: CCOC(=O)CCNc1cc(N2CCc3ccccc3CC2)nc(-c2ccccn2)n1 [GSK-J4] + CCNC(=O)c1noc(-c2cc(C(C)C)c(O)cc2O)c1-c1ccc(CN2CCOCC2)cc1 [Luminespib] (partner 0.01 µM)
In short: as §1

AZ3146 + Pictilisib = compound: CN1CCC(CC1)OC2=CC(=C(C=C2)NC3=NC=C4C(=N3)N(C(=O)N4C)C5CCCC5)OC [AZ3146] + CS(=O)(=O)N1CCN(Cc2cc3nc(-c4cccc5[nH]ncc45)nc(N4CCOCC4)c3s2)CC1 [Pictilisib] (partner 1 µM)
In short: as §1

AZ3146 + Olaparib = compound: CN1CCC(CC1)OC2=CC(=C(C=C2)NC3=NC=C4C(=N3)N(C(=O)N4C)C5CCCC5)OC [AZ3146] + O=C(c1cc(Cc2n[nH]c(=O)c3ccccc23)ccc1F)N1CCN(C(=O)C2CC2)CC1 [Olaparib] (partner 8 µM)
In short: as §1

Row | Cell Line | relative viability (GSK-J4 + Trametinib; first compound 0.5 µM) | relative viability (GSK-J4 + Trametinib; first compound 1.581 µM) | relative viability (GSK-J4 + Trametinib; first compound 5 µM) | relative viability (GSK-J4 + Trametinib; first compound 15.81 µM) | relative viability (GSK-J4 + Trametinib; first compound 50 µM) | relative viability (GSK-J4 + Luminespib; first compound 0.5 µM) | relative viability (GSK-J4 + Luminespib; first compound 1.581 µM) | relative viability (GSK-J4 + Luminespib; first compound 5 µM) | relative viability (GSK-J4 + Luminespib; first compound 50 µM) | relative viability (AZ3146 + Pictilisib; first compound 0.08 µM) | relative viability (AZ3146 + Pictilisib; first compound 0.253 µM) | relative viability (AZ3146 + Pictilisib; first compound 0.8 µM) | relative viability (AZ3146 + Pictilisib; first compound 2.53 µM) | relative viability (AZ3146 + Pictilisib; first compound 8 µM) | relative viability (AZ3146 + Olaparib; first compound 0.08 µM) | relative viability (AZ3146 + Olaparib; first compound 0.253 µM) | relative viability (AZ3146 + Olaparib; first compound 0.8 µM) | relative viability (AZ3146 + Olaparib; first compound 2.53 µM) | relative viability (AZ3146 + Olaparib; first compound 8 µM) | relative viability (GSK-J4 + Luminespib; first compound 15.81 µM)
1 | NCI-H2347 | 0.25 | 0.273 | 0.275 | 0.32 | 0.285 | 0.529 | 0.405 | 0.341 | 0.435 | 0.604 | 0.542 | 0.654 | 1.12 | 0.422 | 0.587 | 0.354 | 0.562 | 0.49 | 0.612 | 
2 | NCI-H2405 | 0.586 | 0.63 |  | 0.48 | 0.749 | 0.774 | 0.674 |  | 0.653 | 0.533 |  | 0.418 | 0.451 | 0.58 | 0.827 | 0.881 | 0.933 | 0.925 | 0.818 | 0.511
3 | NCI-H3122 | 0.223 | 0.266 | 0.222 | 0.273 | 0.193 | 0.0789 | 0.067 | 0.119 | 0.121 | 0.613 | 0.614 | 0.555 | 0.639 | 0.684 | 0.582 | 0.611 | 0.543 | 0.615 | 0.645 | 0.0946
4 | PC-3 [JPC-3] | 0.783 | 0.551 | 0.598 | 0.647 | 0.64 | 0.698 | 0.552 | 0.735 | 0.439 | 0.669 | 0.651 | 0.766 | 0.8 | 0.681 | 1.04 |  | 1.01 | 1.25 | 1.09 | 0.584
5 | PC-14 | 0.68 | 0.663 | 0.503 | 0.738 | 0.691 | 0.216 | 0.159 | 0.151 | 0.125 | 0.68 | 0.763 | 0.725 | 0.71 | 0.518 | 0.286 | 0.319 | 0.259 | 0.225 | 0.0944 | 0.126
6 | RERF-LC-KJ | 0.85 | 0.845 | 0.931 | 0.708 | 0.66 | 1.23 | 1.17 | 1.31 | 0.584 | 0.513 | 0.53 | 0.549 | 0.696 | 0.516 | 0.94 | 0.833 | 0.902 | 0.852 | 0.462 | 1.12
7 | SK-LU-1 | 0.468 | 0.499 | 0.385 | 0.43 | 0.383 | 0.214 | 0.195 | 0.166 | 0.212 | 0.571 | 0.507 | 0.693 | 0.651 | 0.535 | 0.452 | 0.496 | 0.414 | 0.445 | 0.441 | 0.201
8 | SK-MES-1 | 0.56 | 0.582 | 0.497 | 0.489 | 0.478 | 0.695 | 0.731 | 0.718 | 0.37 | 0.349 | 0.376 | 0.388 | 0.371 | 0.373 | 0.779 | 0.759 | 0.718 | 0.784 | 0.654 | 0.686
9 | SW 1573 | 0.577 | 0.474 | 0.651 | 0.599 | 0.381 | 0.199 | 0.0964 | 0.268 | 0.148 | 0.457 | 0.539 | 0.507 | 0.633 | 0.443 | 0.569 | 0.507 | 0.575 | 0.374 | 0.227 | 0.213

Source: the supplement of paper PMC10307832
